These results are taken from patent US6750028B1, “Anti-fibrotic agent assay” (Ethicon, Inc, priority 1996, dated 2004).

For assay [1], the system named is tissue Transglutaminase II mRNA. The assay can be described thus: mRNA for TGase II in macrophages by RT-PCR densitometry. The format is cell-based, mouse. Particulars: 1 μM hydrocortisone, densitometry of RT-PCR products, FIG. 3. Here is the method:
(§1) The cells were washed with PBS, followed by addition of the extraction buffer provided with the kit (RNeasy RNA extraction kit). The lysed cells were scraped from the dish and collected in microtubes. Samples were either frozen at −70° C. before analysis or directly assessed following manufacturer protocol. Absorbance at 260 nm and 280 nm was measured and the integrity of RNA was evaluated by denaturing formaldehyde agarose gels stained with ethidium bromide.
The procedure used to transcribe the total RNA was described in detail previously (28). […]
A portion of the first strand cDNA reaction was used in PCR, which was carried out in 25 μl containing 16 mM Tris-HCl, pH 8.3, 50 mM KCl, 1.5 mM MgCl2, 0.01% gelatin, 200 μM of each dNTPs, 1 μM each sense and antisense oligonucleotides and 2.5 units of AmpliTaq DNA polymerase. […] Sizes were determined using Q X 174 DNA/Hae III markers. […] Densitometry was used for quantitative analysis of the ethidium bromide stained gels.
In an attempt to identify the mechanism of this inhibition, the level of mRNA was evaluated for TGase II in macrophages treated with 1 μM hydrocortisone.

The test system of assay [2] is TGF-β1 activation. Nature of the assay: Macrophage activation assay (IC-21 macrophages, LPS, fetal fibroblast conditioned media, ELISA). The format is cell-based, mouse. Particulars: 1 μM. Here is the method:
Cultured macrophages were lifted from the dish with 3 ml of PBS. The PBS was balanced with 15 ml of RPMI-1640 containing 10% FBS. The cells were counted and then seeded in 100 mm plates at 1×10^6 cells/dish. When the cultured macrophages reached approximately 70% confluency (2-3 days) they were washed with PBS and RPMI-1640 medium containing 5% FBS and 10 ng/ml LPS was applied (FIG. 1). After 24 h of activation with LPS the cells were washed gently with PBS. At this point conditioned medium from confluent fetal dermal fibroblasts was collected and 5 ml was distributed into each dish containing macrophages. The cells were incubated for an additional 24 h, the media were collected, spun down at 600×g for 10 min and stored at 4° C. before TGF-β1 evaluation by ELISA. Each condition was done in duplicate. The cells, washed with PBS, were harvested for total RNA extraction.
Fetal dermal fibroblasts were seeded in 100 mm dishes at 1×10^6 cell/dish. The cells were grown to confluency (2-3 days). The cultures were washed with PBS and fresh medium, either DMEM supplemented with 10% FBS or AIM-V medium (a serum free medium) for serum-free conditions, was applied for 24 h (FIG. 1). The medium was collected and combined in order to obtain a homogenous pool of latent TGF-β1. The collection of the medium was done just prior to application in the macrophage assay.
(§2) Each measurement was performed in duplicates.

Assay [3] deals with TGF-β1 activation. The assay can be described thus: Co-culture of BAEC and BASMC, TGF-β1 in conditioned media by ELISA. The format is cell-based, bovine. Here is the method:
For co-culture experiments, BAECs and BASMCs were seeded separately in 35 mm dishes at a density of 40×10^4 cells in DMEM/10% CS (Calf Serum) or 3.2×10^5 BAECs and 0.8×10^5 BASMCs in the same 35-mm dishes. After cell attachment (approximately 2 h) the cells were rinsed with PBS and incubated in 1 ml of DMEM/0.1% BSA for 6 h to produce conditioned media. Conditioned Media were centrifuged and used in the ELISA assay.
as §2
Preliminary experiments were carried out with the aim to adopt the published co-culture system for screening anti-fibrotic agents.

In assay [4] the test system is TGF-β1 mRNA. Nature of the assay: TGF-β1 mRNA in human neonatal fibroblasts by RT-PCR. The format is cell-based. Here is the method: (§3) Human neonatal fibroblasts were seeded in 100 mm dishes at 1×10^6 cells/dish. […] In addition, cells were treated with two concentrations of Mannose 1-Phosphate (M1P) (100 and 200 μM) for 24 and 48 h. […] Each treatment was run in duplicates and repetitive analyses were performed.
(§4) The procedure used to transcribe the total RNA was described in detail previously (28). Briefly, the reaction was carried out in a total volume of 25 μl containing 1× reverse transcriptase buffer (50 mM Tris-HCl, pH 8.3, 75 mM KCl, 3 mM MgCl2), 10 mM DTT (Dithiothreitol), 2.5 mM each of dNTPs (Deoxynucleotides), 100 μg/ml of acetylated BSA, 4 units of rRNasin (ribonuclease inhibitor), 200 units of SuperScript™ RNase H^−Reverse Transcriptase, 0.1 μg of oligo (dT)12-18 and 1 μg of total RNA. Incubation was carried out for 1 h at 42° C. and was terminated by the addition of an equal volume of cold water.
(§5) A portion of the first strand cDNA reaction was used in PCR, which was carried out in 25 μl containing 16 mM Tris-HCl, pH 8.3, 50 mM KCl, 1.5 mM MgCl2, 0.01% gelatin, 200 μM of each dNTPs, 1 μM each sense and antisense oligonucleotides and 2.5 units of AmpliTaq DNA polymerase. Amplification was carried out for 35 cycles. Each cycle consisted of: denaturation 1 min at 95° C.; annealing at 55° C. (optimal for the pair of oligonucleotides used) for 2 min; and elongation at 72° C., 3 min. For the final cycle elongation was 7 min. Reaction products were separated by 2% agarose gel electrophoresis and were visualized by ethidium bromide staining. Sizes were determined using Q X 174 DNA/Hae III markers. Restriction digests were performed in order to confirm PCR product specificity. Densitometry was used for quantitative analysis of the ethidium bromide stained gels.

The test system of the next assay is M6P/IGF-II receptor mRNA. Nature of the assay: M6P/IGF-II receptor mRNA in human neonatal fibroblasts by RT-PCR. The format is cell-based. The method, then: as §3, §4, §5
Assay [5] deals with TGF-β1 activation. The assay can be described thus: TGF-β1 activation by HMB-2 melanoma cells (ELISA). Format: cell-based, human. The method, then: as §2
(§6) It has been shown that cancer cells, such as human breast cancer, some melanoma cell lines and prostate adenocarcinoma cell lines, constitutively release biologically active TGF-β1 into the culture medium (24, 25, 29). Since the homotypic cell culture system would be of advantage due to its simplicity, an attempt was made to implement cancer cells as a method for TGF-β1 activation.

Assay [6] relates to TGF-β1 mRNA. The assay can be described thus: mRNA for TGF-β1 in macrophages by Northern blot. As to conditions: LPS alone or LPS with M6P or DCA, FIG. 2. The format is cell-based, mouse. The method, then:
as §1
Northern blot analysis was carried out as described previously (27). Briefly, total RNA samples (5 μg) were diluted in formaldehyde-MOPS buffer and subjected to electrophoresis in a denaturing 1.2% Sea Kem GTG agarose gel along with the RNA size markers. RNA was transferred to a nitrocellulose membrane by capillary transfer. The blots were prehybridized for 3 h at 42° C. in a solution containing 10% dextran sulfate, 2×Denhardt's solution, 50% formamide, 5×SSPE (0.75 M Sodium chloride, 0.05 M sodium phosphate, 0.005 M ethylenediaminetetraacetic acid)/0.1% SDS, and 250 μg/ml of sheared salmon testis DNA. Hybridization solution was essentially the same except that ^32P dCTP-labeled DNA probe and 150 μg/ml of salmon testis DNA were included. The hybridization was carried out for 16 h at 42° C. […]

In another assay the test system is M6P/IGF-II receptors. Nature of the assay: M6P/IGF-II receptor levels within wounds treated with M6P. As to conditions: 3 days post-wounding. The format is in vivo.
Assay [7] concerns TGF-β receptor type I mRNA. The assay can be described thus: TGF-β receptor type I mRNA in human neonatal fibroblasts by RT-PCR. Format: cell-based. Particulars: M6P, time course of treatment (24 and 48 h). The method, then:
as §3, §4
A portion of the first strand cDNA reaction was used in PCR, which was carried out in 25 μl containing 16 mM Tris-HCl, pH 8.3, 50 mM KCl, 1.5 mM MgCl2, 0.01% gelatin, 200 μM of each dNTPs, 1 μM each sense and antisense oligonucleotides and 2.5 units of AmpliTaq DNA polymerase. Amplification was carried out for 35 cycles. […] Sizes were determined using Q X 174 DNA/Hae III markers. […] Densitometry was used for quantitative analysis of the ethidium bromide stained gels.

The subject of assay [8] is TGF-β1 activation. Nature of the assay: BAEC treated with retinoic acid, TGF-β1 in conditioned media by ELISA. The format is cell-based, bovine. Here is the method: The procedures for preparation of conditioned media were described previously (22). Briefly, for the retinoid experiment, BAEC cells were grown to confluency in 35 mm dishes. The cultures were rinsed with PBS (Phosphate Buffered Saline), and incubated in 1 ml of serum-free DMEM containing 0.1% of BSA and retinoic acid (10 μM) or vehicle (0.5% ethanol). The incubation was carried out for 24 h. The medium was aspirated, the cells were washed with PBS and then incubated in 1 ml of DMEM/0.1% BSA for an additional 12 h to produce conditioned medium. Conditioned media were centrifuged and used in the ELISA assay for TGF-β1 evaluation.
Each measurement was performed in duplicates. […]

The subject of assay [9] is TGF-β1 activation. The assay can be described thus: TGF-β1 activation by Bowes melanoma cells (ELISA). Format: cell-based, human. The method, then:
as §2, §6

The subject of assay [10] is TGF-β1 activation. Nature of the assay: TGF-β1 activation by prostate adenocarcinoma cells (ELISA). The format is cell-based, human. Here is the method: as §2, §6
The mark [11] stands for this setting: BAEC + RA (10 μM) + test agent 100 μM.

With `C[C@]12CCC(=O)C=C1CC[C@@H]1[C@@H]2[C@@H](O)C[C@@]2(C)[C@H]1CC[C@]2(O)C(=O)CO` [Hydrocortisone, hydrocortisone], in [1], the “level of mRNA for TGase II, reduced to” value is on record as 37.5%. Moreover, the “active TGF-β1, % Control (STD)” value in the assay on TGF-β1 activation [2] is given as 64.0 (0.4) %; with TGF-β1 activation [2] (listed as hydrocortisone) it was 64.0%.

For `O=C[C@@H](O)[C@@H](O)[C@H](O)[C@H](O)COP(=O)(O)O` [M6P, D-mannose 6-phosphate], in the assay on TGF-β1 activation [3] (100 μM), the “inhibition of TGF-β1 activation, in words” value is on record as “did not significantly inhibit”. For the same compound, the results for the “% Active” value in the assay on TGF-β1 activation [3] (Co-culture + M6P 100 μM) and in the assay on TGF-β1 activation [8] (setting [11]) were 7.5% and 8.1%, respectively. The “Active TGF-β1” value in the assay with TGF-β1 activation [3] (Co-culture + M6P 100 μM) worked out at 58 pg/mL; with TGF-β1 activation [8] (setting [11]), 287 pg/mL. In addition, the “Total TGF-β1” value stood at 770 pg/mL in the assay with TGF-β1 activation [3] (Co-culture + M6P 100 μM) and 3544 pg/mL in the assay on TGF-β1 activation [8] (setting [11]). Further, the “expression of TGF-β1 cDNA (RT-PCR)” value with TGF-β1 mRNA [4] (M6P 1 μM, 24 h) was determined as 80.9; in the assay with TGF-β1 mRNA [4] (M6P 1 μM, 48 h), 86.3; in the assay with TGF-β1 mRNA [4] (M6P 10 μM, 24 h) it was 116.2; in the assay with TGF-β1 mRNA [4] (M6P 10 μM, 48 h), 78.8; in the assay with TGF-β1 mRNA [4] (M6P 50 μM, 24 h), 119.3; with TGF-β1 mRNA [4] (M6P 50 μM, 48 h), 75. Further, the “expression of TGF-β1 cDNA (RT-PCR)” value with TGF-β1 mRNA [4] (M6P 100 μM, 24 h) stood at 95.6; with TGF-β1 mRNA [4] (M6P 200 μM, 24 h), 62.5; with TGF-β1 mRNA [4] (M6P 200 μM, 48 h), 28.8. The “expression of mRNA for M6P/IGF-II receptor, in words” value with M6P/IGF-II receptor mRNA (1-100 μM, 24 h) is given as “not affected”; in the assay on M6P/IGF-II receptor mRNA (50-200 μM, 48 h) it was “decrease”. For the same compound, the “% ACTIVE TGF-β1 (STD)” value with TGF-β1 activation [5] (HMB-2, M6P 100 μM, DCA 100 μM, antibody 1:1500 dil) came to 108.4%; with TGF-β1 activation [9] (BOWES, M6P 100 μM, DCA 100 μM, antibody 1:1500 dil), 113.5%; in the assay on TGF-β1 activation [10] (Adenocarcinoma cells, M6P 100 μM, cystamine 100 μM, antibody 1:1500 dil), 91.8%. Besides, the “effect on TGF-β1 activation, in words” value in the assay with TGF-β1 activation [5] (melanoma cells (HMB-2)), with TGF-β1 activation [9] (melanoma cells (Bowes)) and with TGF-β1 activation [10] (prostate cancer cells) was “no effect” in each case. Moreover, the “levels of mRNA for TGF-β1, in words” value with TGF-β1 mRNA [6] is “remained the same”. In addition, the “levels of the M6P/IGF-II receptors within the wounds, in words” value in the assay on M6P/IGF-II receptors is on record as “downregulated”. In addition, the “level of TGF-β receptor type I mRNA, in words” value in [7] is recorded as “unchanged”. The “inhibitory effect on TGF-β1 activation, in words” value in the assay with TGF-β1 activation [8] (100 μM, BAEC treated with RA) is on record as “no significant inhibitory effects”.
